According to patent publication US20120094998A1, “Oligomer-Protein Tyrosine Kinase Inhibitor Conjugates” (Nektar Therapeutics, priority 2009, published 2012):

Key:
Flt3 (D835Y) = molecular target: T1, Flt3 (D835Y) (Homo sapiens, UniProt P36888, D835Y); assay: Activity against various protein tyrosine kinases: Flt3 (D835Y); format: biochemical; conditions: for inhibition at 0.01 µM: 10 nM
T1 sequence (P36888 27-993 D835Y): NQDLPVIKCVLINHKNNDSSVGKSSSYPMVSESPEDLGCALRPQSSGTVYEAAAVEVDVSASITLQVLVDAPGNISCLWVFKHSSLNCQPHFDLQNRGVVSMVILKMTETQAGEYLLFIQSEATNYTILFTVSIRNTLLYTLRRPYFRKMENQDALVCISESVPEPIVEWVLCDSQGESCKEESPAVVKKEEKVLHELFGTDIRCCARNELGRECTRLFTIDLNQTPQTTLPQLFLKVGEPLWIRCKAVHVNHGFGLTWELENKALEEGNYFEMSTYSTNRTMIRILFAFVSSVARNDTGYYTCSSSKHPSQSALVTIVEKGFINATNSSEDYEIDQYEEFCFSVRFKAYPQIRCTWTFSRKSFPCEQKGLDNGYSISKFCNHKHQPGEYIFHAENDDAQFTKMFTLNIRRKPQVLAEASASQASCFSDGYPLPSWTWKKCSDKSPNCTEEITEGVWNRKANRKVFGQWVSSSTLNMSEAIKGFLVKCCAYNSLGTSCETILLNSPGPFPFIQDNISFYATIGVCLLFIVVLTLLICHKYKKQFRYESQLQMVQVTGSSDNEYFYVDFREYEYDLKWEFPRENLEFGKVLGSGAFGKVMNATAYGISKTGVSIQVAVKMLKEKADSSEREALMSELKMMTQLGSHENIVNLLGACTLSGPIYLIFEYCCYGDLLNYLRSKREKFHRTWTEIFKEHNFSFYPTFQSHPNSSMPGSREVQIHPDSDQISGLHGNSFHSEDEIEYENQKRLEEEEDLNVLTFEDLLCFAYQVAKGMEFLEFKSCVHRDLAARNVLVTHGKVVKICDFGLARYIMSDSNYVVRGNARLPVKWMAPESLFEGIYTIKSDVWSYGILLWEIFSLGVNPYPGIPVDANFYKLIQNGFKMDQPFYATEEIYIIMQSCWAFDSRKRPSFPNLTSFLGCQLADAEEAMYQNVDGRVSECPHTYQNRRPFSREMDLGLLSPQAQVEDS
Protocol: (§1) Using techniques know those of ordinary skill in the art, compounds were tested for activity against various protein tyrosine kinases.

IKK-beta = molecular target: T2, IKK-beta (Homo sapiens, UniProt O14920); assay: Activity against various protein tyrosine kinases: IKK-beta; format: biochemical; conditions: for inhibition at 0.01 µM: 10 nM
T2 sequence (O14920 1-756): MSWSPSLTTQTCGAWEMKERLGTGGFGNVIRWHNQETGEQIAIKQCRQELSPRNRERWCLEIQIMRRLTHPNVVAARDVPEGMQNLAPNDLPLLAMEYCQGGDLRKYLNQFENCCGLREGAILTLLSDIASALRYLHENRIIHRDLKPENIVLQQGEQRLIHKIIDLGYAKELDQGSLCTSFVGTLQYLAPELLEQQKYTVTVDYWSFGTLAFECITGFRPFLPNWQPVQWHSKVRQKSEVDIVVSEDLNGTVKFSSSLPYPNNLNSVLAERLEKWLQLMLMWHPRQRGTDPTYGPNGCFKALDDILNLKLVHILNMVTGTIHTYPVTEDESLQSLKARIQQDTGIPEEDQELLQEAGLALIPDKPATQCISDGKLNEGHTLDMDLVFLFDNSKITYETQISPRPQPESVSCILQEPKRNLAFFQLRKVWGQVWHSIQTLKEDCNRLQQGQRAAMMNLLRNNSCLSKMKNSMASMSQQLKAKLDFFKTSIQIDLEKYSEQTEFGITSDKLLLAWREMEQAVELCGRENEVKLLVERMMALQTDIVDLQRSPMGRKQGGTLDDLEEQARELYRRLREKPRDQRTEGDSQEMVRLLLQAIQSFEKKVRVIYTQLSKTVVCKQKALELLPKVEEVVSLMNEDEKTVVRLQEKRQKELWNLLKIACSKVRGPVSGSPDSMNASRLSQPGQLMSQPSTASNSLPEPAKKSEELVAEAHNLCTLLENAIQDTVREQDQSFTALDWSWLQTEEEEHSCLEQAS
Protocol: as §1

Erk1 = Erk1 (Homo sapiens, UniProt P27361); assay: Activity against various protein tyrosine kinases: Erk1; format: biochemical; conditions: for inhibition at 0.01 µM: 10 nM
Chain of Erk1 (P27361 whole entry, species assumed): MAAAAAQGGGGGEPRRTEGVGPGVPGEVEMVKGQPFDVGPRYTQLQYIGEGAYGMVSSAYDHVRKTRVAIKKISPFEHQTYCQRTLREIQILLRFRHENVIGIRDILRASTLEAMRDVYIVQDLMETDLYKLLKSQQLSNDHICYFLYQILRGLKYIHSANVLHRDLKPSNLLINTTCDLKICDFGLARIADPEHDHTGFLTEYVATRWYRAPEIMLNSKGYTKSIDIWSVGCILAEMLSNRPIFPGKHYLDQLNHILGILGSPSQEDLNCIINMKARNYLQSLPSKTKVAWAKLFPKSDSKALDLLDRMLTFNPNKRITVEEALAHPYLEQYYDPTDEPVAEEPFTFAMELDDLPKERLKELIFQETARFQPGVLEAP
Protocol: as §1

PKG1-beta = molecular target: T3, PKG1-beta (Homo sapiens, UniProt Q13976); assay: Activity against various protein tyrosine kinases: PKG1-beta; format: biochemical; conditions: for inhibition at 0.01 µM: 10 nM
T3 sequence (Q13976 1-686 isoform Q13976-2): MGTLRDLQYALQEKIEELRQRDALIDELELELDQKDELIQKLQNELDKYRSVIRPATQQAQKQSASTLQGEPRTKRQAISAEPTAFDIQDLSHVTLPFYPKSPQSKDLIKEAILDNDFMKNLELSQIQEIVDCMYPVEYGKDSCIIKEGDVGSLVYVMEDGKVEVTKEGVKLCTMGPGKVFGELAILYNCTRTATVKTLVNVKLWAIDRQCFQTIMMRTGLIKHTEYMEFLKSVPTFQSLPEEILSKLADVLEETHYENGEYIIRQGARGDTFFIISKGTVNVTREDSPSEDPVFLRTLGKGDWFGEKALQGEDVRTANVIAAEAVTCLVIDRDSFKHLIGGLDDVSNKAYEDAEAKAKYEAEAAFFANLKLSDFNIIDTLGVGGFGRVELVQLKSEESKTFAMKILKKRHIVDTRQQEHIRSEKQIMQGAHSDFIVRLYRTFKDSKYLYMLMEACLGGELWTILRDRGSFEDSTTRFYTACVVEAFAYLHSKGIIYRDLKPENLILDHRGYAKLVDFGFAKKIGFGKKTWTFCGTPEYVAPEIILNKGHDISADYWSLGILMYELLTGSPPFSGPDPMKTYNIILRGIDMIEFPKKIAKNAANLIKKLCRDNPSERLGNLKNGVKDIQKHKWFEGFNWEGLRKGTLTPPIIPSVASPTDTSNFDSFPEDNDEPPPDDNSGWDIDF
Protocol: as §1

ABL = ABL (Homo sapiens, UniProt P00519)
Chain of ABL (P00519 whole entry): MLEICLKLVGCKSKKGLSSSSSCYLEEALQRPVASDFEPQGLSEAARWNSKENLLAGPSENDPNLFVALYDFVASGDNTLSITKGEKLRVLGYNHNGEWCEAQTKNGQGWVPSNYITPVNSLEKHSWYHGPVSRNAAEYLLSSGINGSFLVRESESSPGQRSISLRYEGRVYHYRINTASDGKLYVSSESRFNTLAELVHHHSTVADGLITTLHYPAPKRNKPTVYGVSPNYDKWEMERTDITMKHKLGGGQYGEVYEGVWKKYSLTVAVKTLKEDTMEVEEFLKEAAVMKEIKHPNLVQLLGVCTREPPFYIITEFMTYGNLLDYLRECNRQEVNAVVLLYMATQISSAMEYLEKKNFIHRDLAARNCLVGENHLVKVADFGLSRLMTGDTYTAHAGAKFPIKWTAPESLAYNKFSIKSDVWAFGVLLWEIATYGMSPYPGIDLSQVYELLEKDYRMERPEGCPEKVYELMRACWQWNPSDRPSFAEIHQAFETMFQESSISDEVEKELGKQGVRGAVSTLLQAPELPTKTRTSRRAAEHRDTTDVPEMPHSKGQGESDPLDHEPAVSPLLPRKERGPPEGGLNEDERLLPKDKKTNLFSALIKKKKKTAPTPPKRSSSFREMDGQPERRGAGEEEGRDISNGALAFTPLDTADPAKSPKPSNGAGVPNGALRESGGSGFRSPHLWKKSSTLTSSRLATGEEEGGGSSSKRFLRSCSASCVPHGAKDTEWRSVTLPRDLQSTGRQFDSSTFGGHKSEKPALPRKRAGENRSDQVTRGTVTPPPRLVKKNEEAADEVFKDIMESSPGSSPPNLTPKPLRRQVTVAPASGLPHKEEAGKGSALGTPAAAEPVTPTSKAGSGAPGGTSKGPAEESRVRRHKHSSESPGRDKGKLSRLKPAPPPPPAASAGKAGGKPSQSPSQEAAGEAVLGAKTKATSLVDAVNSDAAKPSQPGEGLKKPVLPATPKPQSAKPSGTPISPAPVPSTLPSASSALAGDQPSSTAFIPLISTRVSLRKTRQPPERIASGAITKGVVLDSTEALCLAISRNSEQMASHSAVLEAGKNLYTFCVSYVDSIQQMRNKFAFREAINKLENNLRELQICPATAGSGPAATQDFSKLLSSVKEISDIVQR

Row | inhibition at 0.01 µM (Flt3 (D835Y)) [%] | inhibition at 1 µM (Flt3 (D835Y)) [%] | inhibition at 0.01 µM (IKK-beta) [%] | inhibition at 1 µM (IKK-beta) [%] | inhibition at 0.01 µM (Erk1) [%] | inhibition at 1 µM (Erk1) [%] | inhibition at 0.01 µM (PKG1-beta) [%] | inhibition at 1 µM (PKG1-beta) [%] | ABL AVG % Activity at 1.0E−09 (ABL) [%] | ABL AVG % Activity at 1.0E−10 (ABL) [%] | ABL AVG % Activity at 1.0E−11 (ABL) [%] | ABL AVG % Activity at 3.0E−09 (ABL) [%] | ABL AVG % Activity at 3.0E−10 (ABL) [%] | ABL AVG % Activity at 3.0E−11 (ABL) [%] | SMILES
1 | 3 | 7 | 2 | 2 | 3 | 4 | -3 | -3 | – | – | – | – | – | – | COCCOCCOCCOCCOCCOCCOCCNC(=O)OCCN1CCN(c2cc(Nc3ncc(C(=O)Nc4c(C)cccc4Cl)s3)nc(C)n2)CC1 [mPEG7-NHCOO-Dasatinib]
2 | 6 | 10 | 0 | 1 | 3 | 2 | -2 | 0 | 4 | 81 | 99 | 0 | 47 | 95 | COCCOCCOCCNC(=O)OCCN1CCN(c2cc(Nc3ncc(C(=O)Nc4c(C)cccc4Cl)s3)nc(C)n2)CC1 [mPEG3-NHCOO-Dasatinib]
